Measured values as given in PubChem BioAssay (NCI).
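Step 1: Grow cells in 96-well plates. Step 2: Expose to compound for 48 hours at 5 concentrations. Step 3: Interpolate endpoints linearly; if unreached, use highest concentration. GI50 is the concentration that inhibits growth by half. TGI is the concentration that stops growth completely.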 *1 amine or outer side, *2 acyl side, *3 side chain or, on linkers, in order; H or OH if unused. Where a SMILES comes first, the peptide text is derived from it. Bridges are numbered along the chain shown (N, C = ends). [ ]: non-standard residue; d: D form. The star is where a group is joined. X19 = O=C([C@H](N[*:1])c1ccc(O[C@H]2O[C@@H](CO)[C@@H](O)[C@@H](O)[C@H]2O[C@@H]2O[C@H](CO)[C@H](O)[C@H](O)[C@@H]2O)cc1)[*:2]; X18 = NC(=O)[C@@H](O[*:3])[C@H](N[*:1])C(=O)[*:2]; X20 = O=C([C@H](N[*:1])c1ccc(O)c(Cl)c1)[*:2]; d(aThr) = C[C@@H](O)[C@@H](N)C(=O)O; dHpg = N[C@@H](C(=O)O)c1ccc(O)cc1; X17 = CC(C)C/C=C/C=C/C(=O)*; dOrn = NCCC[C@@H](N)C(=O)O

Legend:
Test in all cases: growth of human tumour cells (NCI), 48 h
[1] = test system: A549 NSCLC
[2] = test system: UO-31 renal
[3] = test system: COLO 205 colon
[4] = test system: RXF 393 renal
[5] = test system: U251 CNS
[6] = test system: HL-60(TB) leukemia
[7] = test system: EKVX NSCLC
[8] = test system: SW-620 colon
[9] = test system: SF-268 CNS
[10] = test system: M14 melanoma

| SMILES | TGI [1] | TGI [2] | TGI [3] | TGI [4] | TGI [5] | TGI [6] | TGI [7] | TGI [8] | TGI [9] | TGI [10] | GI50 [1] | GI50 [2] | GI50 [3] | GI50 [4] | GI50 [5] | GI50 [6] | GI50 [7] | GI50 [8] | GI50 [9] | GI50 [10] |
| --- | --- | --- | --- | --- | --- | --- | --- | --- | --- | --- | --- | --- | --- | --- | --- | --- | --- | --- | --- | --- |
| CCC(O)(c1ccc(OC)cc1)C(c1ccc(OCc2ccccc2)cc1)c1ccc(OCc2ccccc2)cc1 (stereo not given) | > 100 µM | > 100 µM | > 100 µM | > 100 µM | > 100 µM | > 100 µM | > 100 µM | > 100 µM | > 100 µM | > 100 µM |  |  |  |  |  |  |  |  |  |  |
| CC(C)C/C=C/C=C/C(=O)N[C@@H](CC(N)=O)C(=O)N[C@@H]1C(=O)N[C@H](c2ccc(O)cc2)C(=O)N[C@H](CCCN)C(=O)N[C@H]([C@@H](C)O)C(=O)N[C@H](c2ccc(O)cc2)C(=O)N[C@H](c2ccc(O)cc2)C(=O)N[C@H]([C@H](C)O)C(=O)N[C@H](Cc2ccccc2)C(=O)N[C@H](CCCN)C(=O)N[C@H](c2ccc(O[C@H]3O[C@@H](CO)[C@@H](O)[C@@H](O)[C@H]3O[C@@H]3O[C@H](CO)[C@H](O)[C@H](O)[C@@H]3O)cc2)C(=O)N[C@H]([C@H](C)O)C(=O)N[C@H](c2ccc(O)cc2)C(=O)NCC(=O)N[C@H](CC(C)C)C(=O)N[C@H](C)C(=O)N[C@H](c2ccc(O)c(Cl)c2)C(=O)O[C@@H]1C(N)=O (X17-N[X18][dHpg][dOrn][d(aThr)][dHpg][dHpg][dT][dF][dOrn][X19][dT][dHpg]G[dL][dA][X20]; ester 2-C) | > 100 µM | > 100 µM | > 100 µM | > 100 µM | 55 µM | > 100 µM | > 100 µM | 74.8 µM | > 100 µM | > 100 µM | > 100000 nM | > 100000 nM | 37800 nM | 86 µM | 24100 nM | > 100000 nM | 50600 nM | 26200 nM | 34200 nM | 38400 nM |
| C#Cc1cccc(Nc2ncnc3ccc(-c4cnc(Cl)c(NS(C)(=O)=O)c4)cc23)c1 | 4.83 µM | 1.41 µM | 2.12 µM | 0.996 µM | 2.68 µM | 1.27 µM | 1.87 µM | 5.65 µM | 1.67 µM | 2.41 µM | 725 nM | 111 nM | 648 nM | 0.218 µM | 284 nM | 207 nM | 253 nM | 467 nM | 155 nM | 368 nM |
| NC1=NC(c2ccccc2)CC(c2cc(Cl)cc(Br)c2O)=N1 (stereo not given) | 34.6 µM | 32.3 µM | 25.6 µM | 17 µM | 26.4 µM | 13.2 µM | 28.2 µM | 26.2 µM | 26.9 µM | 28.7 µM |  |  |  |  |  |  |  |  |  |  |
| CCOC(=O)/C(C#N)=C\C=C1/C=CNC2=NCCN21 | > 100 µM | > 100 µM | > 100 µM | > 100 µM | > 100 µM | > 100 µM | > 100 µM | > 100 µM | > 100 µM | > 100 µM |  |  |  |  |  |  |  |  |  |  |
| O=C(Nc1ccc(Cl)cc1)c1cc2cc(F)ccc2cc1O | > 100 µM | > 100 µM | 6.4 µM | 16.1 µM | 6.54 µM | 6.78 µM | 22.3 µM | > 100 µM | > 100 µM | > 100 µM | 2500 nM | 1080 nM | 2350 nM | 3 µM | 1100 nM | 1220 nM | 2620 nM | 2490 nM | 2460 nM | 2230 nM |
| CC(=O)O[C@H]1CCC2[C@@H]3CCC4Nc5c(cnn5-c5ccccc5)C[C@]4(C)C3CC[C@@]21C (stereo not given in full) | 68.7 µM | 22.9 µM | 28.9 µM | 24.6 µM | 91.5 µM | 32.9 µM | 16.5 µM | 31.3 µM | > 100 µM | 29.9 µM |  |  |  |  |  |  |  |  |  |  |
